Measured values taken from patent US20260137082A1 (priority 2021, published 2026).
Converted amounts (≈) assume the structure as drawn. Read-outs that look alike come from different tables or passages of the source.

Key:
Gibberella fujikuroi = assay: microbe, parasite or virus in culture; format: cell-based; conditions: Fusarium fujikuroi, 72 h, read-out: EC50 Value
[1] = test system: Fusarium graminearum (Gibberella zeae) strain K-6102; format: cell-based; conditions: solo fungicide, 4 days, 24° C., OD 620 nm
Fusarium asiaticum = assay: microbe, parasite or virus in culture; conditions: 72 h, read-out: EC50 Value
Procedure: The fungicidal activity of cyclobutrifluram, fludioxonil (FDL), and mixtures thereof with various weight ratios (e.g., 10:1 and 1:50) of cyclobutrifluram and FDL was tested against Fusarium asiaticum and Fusarium pseudograminearum.
Specifically, according to the results of pre-experiment, the best concentration ranges for determination of the sensitivity of pathogens to cyclobutrifluram, FDL and mixtures thereof were respectively determined, and 5-7 concentration gradients were set to make the inhibition rate at the minimum concentration close to 10% and the inhibition rate at the highest concentration close to 90%. […]
Mycelial plugs in the edge of colony were prepared by hole puncher with a diameter of 5 mm. […] After cultured in an incubator at 25° C. for three days in darkness, the diameters of every mycelial colony on PDA plates were measured twice perpendicularly and then averaged. […]
The EC50 values of each tested agent and each mixture were calculated by the linear regression analysis between the probability value of the inhibition rate and the log value of the series of concentrations. The co-toxicity coefficient (CTC) of the mixtures was calculated and evaluated according to the Sun-YP method.

SMILES	EC50 (Gibberella fujikuroi) [µg/mL]	Efficacy (%, n = 5) ([1]; 0.1 ppm) [%]	Efficacy (%, n = 5) ([1]; 1 ppm) [%]	Efficacy (%, n = 5) ([1]; 10 ppm) [%]	EC50 (Fusarium asiaticum) [µg/mL]
O=C(NC1CCC1c1ccc(Cl)cc1Cl)c1cccnc1C(F)(F)F (stereo in doubt) [cyclobutrifluram, N-[(1,2 cis)-2-(2,4-dichlorophenyl)cyclobutyl]-2-(trifluoromethyl)pyridine-3-carboxamide]	0.75 (≈ 1.93 µM)	30.8	31.3	34.1	0.0214 (≈ 0.055 µM)
N#CC1=CN=CC1c1cccc2c1OC(F)(F)O2 (stereo not shown) [FDL, 4-(2,2-difluoro-benzo[1,3]dioxol-4-yl)pyrrole-3-carbonitrile]	0.173 (≈ 0.697 µM)	20.4	43.4	65.4	0.0196 (≈ 0.079 µM)
